Data taken from patent US20100029599A1, “Indolylamides as modulators of the EP2 receptor” (BAYER SCHERING PHARMA AKTIENGESELLSCHAFT, priority 2008, published 2010).

How the values were obtained:
[1] = target: T1, EP2 subtype of the human PGE2 receptor (Homo sapiens, UniProt P43116); experiment: cellular cAMP agonism assay; format: cell-based; details: without PGE2
T1 construct: host or cells: cells in a cell culture plate
Protocol: The binding of PGE2 to the EP2 subtype of the human PGE2 receptor induces activation of membrane-associated adenylate cyclases and leads to the formation of cAMP. In the presence of the phosphodiesterase inhibitor IBMX, cAMP which has accumulated due to this stimulation and been released by cell lysis is employed in a competitive detection method. In this assay, the cAMP in the lysate competes with cAMP-XL665 for binding of an Eu cryptate-labelled anti-cAMP antibody.
The two signals are measured in a suitable measuring instrument with a time lag, i.e. after the background fluorescence has declined.
The substance solutions (0.75 μl) introduced into an into an assay plate and 30% DMSO were dissolved in 16 μl of a KRSB+IBMX stimulation solution (1× Krebs-Ringer Bicarbonate Buffer; Sigma-Aldrich # K-4002; including 750 μM 3-isobutyl-1-methylxanthine Sigma-Aldrich # I-7018), and then 15 μl thereof were transferred into a media-free cell culture plate which has been washed with KRSB shortly beforehand.
After incubation at room temperature (RT; volume: ˜15 μl) for 60 minutes, the reaction was then stopped by adding 5 μl of lysis buffer and incubated at RT for a further 20 min (volume: ˜20 μl). The cell lysate was then transferred into a measuring plate and measured in accordance with the manufacturer's instructions (cyclic AMP kit Cisbio International # 62AMPPEC).

[2] = system: cumulus-oocyte complexes (cumulus expansion); experiment: Cumulus expansion assay in vitro; format: cell-based, mice; details: in competition with PGE2
Protocol: Folliculogenesis was induced in immature female mice (strain: CD1 (ICR) from Charles River) at an age of 14-18 days by a single dose (intraperitoneal) of 10 I.U. of PMSG (Pregnant Mare Serum Gonadotropin; Sigma G-4877, lot 68H0909). 47-50 hours after the injection, the ovaries were removed and the cumulus-oocyte complexes were removed. The cumulus complex is not yet expanded at this stage.
The cumulus-oocyte complexes were then incubated with prostaglandin E2 (PGE2) (0.3 μM), vehicle control (ethanol) or test substances for 20-24 hours. Medium: alpha-MEM medium with 0.1 mM IBMX, pyruvates (0.23 mM) glutamines (2 mM), pen/strep 100 IU/ml pen. and 100 μg/ml strep. and HSA (8 mg/ml). Cumulus expansion was then established through the division into four stages (according to Vanderhyden et al. Dev Biol. 1990 August; 140(2):307-317).

T1 sequence (P43116 whole entry): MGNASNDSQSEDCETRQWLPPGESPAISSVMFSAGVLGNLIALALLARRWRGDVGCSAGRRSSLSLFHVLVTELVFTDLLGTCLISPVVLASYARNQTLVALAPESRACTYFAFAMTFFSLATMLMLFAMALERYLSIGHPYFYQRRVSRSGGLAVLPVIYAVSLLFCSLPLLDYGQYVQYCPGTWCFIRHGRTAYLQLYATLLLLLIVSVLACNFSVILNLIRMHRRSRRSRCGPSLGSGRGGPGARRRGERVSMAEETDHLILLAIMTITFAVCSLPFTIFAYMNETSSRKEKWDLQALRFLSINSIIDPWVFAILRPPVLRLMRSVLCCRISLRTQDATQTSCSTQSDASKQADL

| effect in the cellular agonism test [1] | SMILES | suppression of cumulus expansion ([2]; 5 μM) | suppression of the expansion of the cumulus ([2]; 100-200 μM) |
| --- | --- | --- | --- |
| no inhibition | Cc1[nH]c2c(F)ccc(C)c2c1CCNC(=O)c1cc2ccc(C(=O)NCC(N)=O)cc2[nH]1 [Example 6, 2-N-[2-(7-fluoro-2,4-dimethyl-1H-indol-3-yl)ethyl]-6-N-carbamoylmethyl-1H-indole-2,6-dicarboxamide] | approx. 67% |  |
|  | CC(C)Oc1ccc2c(=O)c3cc(C(=O)O)ccc3oc2c1 [AH 6809, reference compound] |  | approx. 30% |
